The source of these data is ChEMBL document CHEMBL1201862, “PubChem BioAssay data set” (2004).

Among the test systems are MDA-MB-435; TK-10; A498; MCF7; HOP-92; HCT-15; U-251; UACC-62; SK-MEL-2; SR; HCC 2998; Hs-578T; KM12; Malme-3M; SK-OV-3; OVCAR-3; ACHN; IGROV-1; OVCAR-4; DU-145.
What all share (test): inhibition of tumour cell growth, NCI panel, 48 h

Where a name gives a salt, the structure may show the parent alone.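 96-well plates; 48 h exposure; 5 concentrations. Endpoints by linear interpolation between flanking doses. Not reached: highest tested concentration assigned. At the GI50, growth is halved.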 Active and inactive are the calls of the source. No stated cut-off is given here; in the data, active = GI50 up to about 1.1 µM and inactive = higher. Residues, ends and D or L forms follow the SMILES beside them. *: point of attachment. Boc = CC(C)(C)OC(=O)*

Regarding `CC(=O)c1c2c(cc3c1CC1(Cc4cc5c(cc4C1)CCCC5)C3)CCCC2`, the GI50 is 16.9 µM (inactive) with MDA-MB-435; > 100 µM (inactive) in the experiment on TK-10; 56.6 µM (inactive) with A498; 19.4 µM (inactive) in the experiment on MCF7; > 100 µM (inactive) in the experiment on HOP-92; 36.1 µM with HCT-15. The GI50 was > 100 µM (inactive) with U-251; > 100 µM (inactive) in the experiment on UACC-62; 18.8 µM (inactive) in the experiment on SK-MEL-2; 2.05 µM (inactive) in the experiment with SR; > 100 µM (inactive) with HCC 2998; > 100 µM (inactive) in the experiment with Hs-578T. Besides, the GI50 is > 100 µM (inactive) with KM12; 94.8 µM (inactive) in the experiment with Malme-3M; > 100 µM (inactive) in the experiment on SK-OV-3; 27.2 µM (inactive) in the experiment with OVCAR-3; 6.49 µM (inactive) in the experiment on ACHN; 45 µM (inactive) with IGROV-1. Moreover, the GI50 in the experiment with OVCAR-4 was 8.39 µM (inactive).

Take `N/C(=N\OC(=O)NC(Cl)=C(Cl)Cl)c1cc(C(F)(F)F)cc(C(F)(F)F)c1`: the GI50 with MDA-MB-435 is 19.4 µM (inactive); with TK-10 it was 16.5 µM (inactive); in the experiment with A498, 17.5 µM (inactive); in the experiment on MCF7, 25.1 µM (inactive); in the experiment on HOP-92, 14.8 µM (inactive); with HCT-15 it was 17.3 µM. The GI50 with U-251 is 16 µM (inactive); in the experiment with SR, 10.7 µM (inactive); in the experiment on HCC 2998, 12.5 µM (inactive); in the experiment on KM12, 15.8 µM (inactive); with Malme-3M, 23.9 µM (inactive); with SK-OV-3 it was 28.4 µM (inactive). For the same molecule, the GI50 in the experiment on OVCAR-3 was 14.8 µM (inactive); in the experiment with ACHN it was 14 µM (inactive); in the experiment with IGROV-1 it was 25.8 µM (inactive); in the experiment on DU-145, 13.2 µM (inactive).

In the case of `COC(=O)C(Cc1c[nH]c2ccccc12)NC(=O)C(Cc1c[nH]c2ccccc12)NC(=O)C(Cc1c[nH]c2ccccc12)NC(=O)C(Cc1c[nH]c2ccccc12)NC(=O)C(Cc1c[nH]c2ccccc12)NC(=O)C(Cc1c[nH]c2ccccc12)NC(=O)OC(C)(C)C` (configuration not stated) (Boc-WWWWWW-OMe; configuration not given here), the GI50 in the experiment with MDA-MB-435 was > 100 µM (inactive); in the experiment on TK-10 it was 31.2 µM (inactive); in the experiment with MCF7, 5.25 µM (inactive); in the experiment with HCT-15, > 100 µM; in the experiment with U-251 it was 54.7 µM (inactive); in the experiment on UACC-62 it was 32 µM (inactive). In addition, the GI50 in the experiment with SK-MEL-2 was 61.7 µM (inactive); in the experiment with SR it was 82.4 µM (inactive); in the experiment on HCC 2998, > 100 µM (inactive); in the experiment with Malme-3M it was 69.5 µM (inactive); in the experiment with OVCAR-3 it was > 100 µM (inactive); with ACHN, > 100 µM (inactive). Also, the GI50 is 36.9 µM (inactive) in the experiment with IGROV-1, 32.9 µM (inactive) with DU-145 and > 100 µM (inactive) in the experiment on OVCAR-4.

Consider `C[C@]12CC[C@H](O)CC1=CC[C@@H]1C2CC[C@]2(C)Nc3c(cnn3-c3ccc(F)cc3)CC12` (some centres not stated), for which the GI50 was 41.2 µM (inactive) in the experiment on MDA-MB-435; 78.2 µM (inactive) with TK-10; 2.17 µM (inactive) with A498; > 52.2 µM (inactive) with MCF7; 21.4 µM (inactive) with HOP-92; > 100 µM with HCT-15. For the same molecule, the GI50 with U-251 was 6.3 µM (inactive); in the experiment with UACC-62 it was 14.6 µM (inactive); in the experiment with SR it was > 100 µM (inactive); in the experiment on HCC 2998, > 68.2 µM (inactive); with KM12 it was 29.4 µM (inactive); with Malme-3M, 14.2 µM (inactive). The GI50 with SK-OV-3 is 15.7 µM (inactive); with OVCAR-3 it was 48.5 µM (inactive); with ACHN, 16 µM (inactive); in the experiment with IGROV-1, > 100 µM (inactive); with DU-145, 32 µM (inactive); with OVCAR-4 it was 19 µM (inactive).

Turning to `Cc1ccc(C(=O)N/N=C(\N=N\c2cccc(Cl)c2)c2ccc(N(CCC#N)CCC#N)cc2C)cc1`, the GI50 in the experiment on MDA-MB-435 was > 100 µM (inactive); in the experiment with TK-10, > 100 µM (inactive); in the experiment with A498, > 100 µM (inactive); in the experiment on MCF7, > 100 µM (inactive); in the experiment on HOP-92, > 100 µM (inactive); with HCT-15, > 100 µM. The GI50 in the experiment on U-251, with UACC-62, in the experiment with SK-MEL-2, in the experiment with SR, in the experiment with HCC 2998 and in the experiment with KM12 was > 100 µM (inactive) each time. The GI50 with Malme-3M is > 100 µM (inactive); in the experiment on SK-OV-3 it was > 100 µM (inactive); with OVCAR-3, 93.3 µM (inactive); in the experiment with ACHN it was > 100 µM (inactive); in the experiment with IGROV-1, > 100 µM (inactive); in the experiment on DU-145 it was > 100 µM (inactive). For the same molecule, in the experiment on OVCAR-4, the GI50 was > 100 µM (inactive).

Regarding `CNc1ccc(N)cc1C(=O)N1CCC[C@H]1CO`, the GI50 with MDA-MB-435 was > 100 µM (inactive); in the experiment on TK-10 it was > 100 µM (inactive); in the experiment on A498 it was > 100 µM (inactive); in the experiment on MCF7, > 100 µM (inactive); in the experiment on HCT-15 it was > 100 µM; with U-251 it was > 100 µM (inactive). Moreover, the GI50 with UACC-62, in the experiment on SK-MEL-2, in the experiment with Hs-578T, with KM12, in the experiment with Malme-3M and with SK-OV-3 was > 100 µM (inactive) throughout. For the same molecule, the GI50 in the experiment on ACHN, in the experiment on IGROV-1, with DU-145 and in the experiment with OVCAR-4 was > 100 µM (inactive) each time.

Take `Cc1ccc(S(=O)(=O)N/N=c2/sc3ccccc3n2C)cc1`: the GI50 is > 100 µM (inactive) in the experiment on MDA-MB-435; > 100 µM (inactive) in the experiment with TK-10; > 100 µM (inactive) in the experiment with A498; > 100 µM (inactive) in the experiment with HOP-92; > 100 µM in the experiment on HCT-15; > 100 µM (inactive) in the experiment on U-251. Further, the GI50 with UACC-62, with SK-MEL-2, in the experiment on SR, in the experiment with HCC 2998, with Hs-578T and in the experiment with KM12 was > 100 µM (inactive) each time. Further, the GI50 in the experiment on Malme-3M, in the experiment with SK-OV-3, in the experiment with ACHN, with IGROV-1, in the experiment with DU-145 and in the experiment with OVCAR-4 was > 100 µM (inactive) throughout.

`CN[C@@H](C)[C@@H](O)c1ccccc1` [PSEUDOEPHEDRINE HYDROCHLORIDE]: the GI50 is > 100 µM (inactive) in the experiment on MDA-MB-435; > 100 µM (inactive) with TK-10; > 100 µM (inactive) in the experiment with MCF7; > 100 µM (inactive) in the experiment with HOP-92; > 100 µM in the experiment with HCT-15; > 100 µM (inactive) in the experiment with U-251. Also, the GI50 in the experiment with SK-MEL-2 is > 100 µM (inactive); with HCC 2998, > 100 µM (inactive); in the experiment on Hs-578T, > 100 µM (inactive); in the experiment with KM12, > 100 µM (inactive); in the experiment with Malme-3M, > 100 µM (inactive); with OVCAR-3 it was > 10 µM (inactive). The GI50 in the experiment on ACHN, in the experiment with IGROV-1, in the experiment on DU-145 and with OVCAR-4 was > 100 µM (inactive) throughout.

Take `C=CC(=O)Nc1ccc(NC(=O)C=C)c2c1C(=O)c1ccccc1C2=O`: the GI50 was > 10 µM (inactive) in the experiment on MDA-MB-435; 23.2 µM (inactive) with TK-10; > 100 µM (inactive) in the experiment on A498; 21 µM (inactive) in the experiment on MCF7; 41.9 µM in the experiment with HCT-15; 20.9 µM (inactive) with U-251. Moreover, the GI50 in the experiment on UACC-62 is 21.4 µM (inactive); in the experiment on SK-MEL-2, 69.3 µM (inactive); in the experiment with SR, 28.1 µM (inactive); with HCC 2998, > 100 µM (inactive); in the experiment with Hs-578T, > 100 µM (inactive); with KM12, 12 µM (inactive). Also, the GI50 in the experiment with Malme-3M was > 100 µM (inactive); in the experiment on OVCAR-3, 35.6 µM (inactive); with ACHN, 61.7 µM (inactive); with IGROV-1, > 100 µM (inactive).

Take `O=C(Cc1csc(N/N=C2\C(=O)Nc3ccccc32)n1)Nc1ccccc1`: the GI50 in the experiment with MDA-MB-435 was 39.5 µM (inactive); with TK-10 it was 44.1 µM (inactive); in the experiment with A498 it was 40.6 µM (inactive); in the experiment on MCF7, 54.3 µM (inactive); in the experiment on HOP-92, 35.7 µM (inactive); with HCT-15, 38.5 µM. Besides, the GI50 with U-251 is 22.6 µM (inactive); in the experiment with SK-MEL-2, 91.8 µM (inactive); in the experiment on HCC 2998 it was 31.6 µM (inactive); in the experiment with KM12, 29.2 µM (inactive); with SK-OV-3, 30.3 µM (inactive); in the experiment on OVCAR-3 it was 24.2 µM (inactive). The GI50 in the experiment with ACHN was 21.6 µM (inactive); with IGROV-1, 11.9 µM (inactive); in the experiment on DU-145, 24.9 µM (inactive); in the experiment with OVCAR-4 it was 41.5 µM (inactive).

For `C=C1c2nc3ccccc3n2C=C(c2ccccc2)N1c1ccc(OC)cc1`, the GI50 in the experiment with MDA-MB-435 was 33.5 µM (inactive); in the experiment on TK-10, 12.5 µM (inactive); with A498, > 100 µM (inactive); in the experiment on MCF7, 6.81 µM (inactive); in the experiment with HOP-92, 31.1 µM (inactive); in the experiment on HCT-15, 6.9 µM. Besides, the GI50 was 37.8 µM (inactive) in the experiment on U-251; 17.7 µM (inactive) in the experiment on UACC-62; 28.6 µM (inactive) in the experiment on SK-MEL-2; 17.7 µM (inactive) in the experiment with SR; 11.4 µM (inactive) in the experiment on KM12; 14.2 µM (inactive) in the experiment with Malme-3M. Moreover, the GI50 in the experiment with SK-OV-3 was 34.6 µM (inactive); with OVCAR-3, 57.8 µM (inactive); with ACHN, 13 µM (inactive); in the experiment with IGROV-1, 11 µM (inactive); in the experiment on DU-145, 26.4 µM (inactive); with OVCAR-4 it was 13.7 µM (inactive).
